In patent publication US9244073B2, “Assays for detecting enzymatic activity” (Wellstat Diagnostics, LLC, priority 2011, dated 2016):
Primed or numbered codes have the meaning given here. KLCBiot = lysine with long-chain biotin conjugated to the side-chain primary amine (Lysine-Long-Chain-Biotin); mPeg2 = hydrophilic 9-atom polyethylene (PEG) spacer; Bz′ = not defined here

Assays:
Type in all cases: biochemical
FXa [1] = assay: Detecting FXa activity with biotin- and TAG Plus-conjugated substrate (ECL, loss of signal on cleavage)
From the text: FXa activity can be measured through the use of peptides that include a FXa recognition sequence, a biotin at one terminus of the peptide and a BV-TAG Plus at the other terminus. In this embodiment, FXa recognizes and specifically cleaves the peptide between the arginine amino acid and the next amino acid toward the carboxy terminus, e.g., between arginine and glycine in peptide probe sequences I and II below. The cleavage by FXa results in the separation of biotin from the BV-TAG Plus. When the biotin is captured with streptavidin coated microparticles (Dynabeads M280-SA, Invitrogen, Cat: 112-06D), this loss of BV-TAG Plus can be measured quantitatively by an ECL instrument such as the M-SERIES® M1MR Analyzer (BioVeris Corporation, Gaithersburg, Md.).
A FXa activity calibrator curve was set up in a 96-well U bottom microtiter plate containing a serial dilution of FXa in an assay buffer [20 mM Tris-HCl (pH 7.2), 100 mM NaCl, 0.5% BSA and 6.0 mM CaCl2], with either peptide probe sequence I or II and M280-SA beads (Dynabeads M280-SA, Invitrogen, Cat: 112-06D). To each well was added 50 μL of 2-fold serial dilutions of FXa from 5000, 2500, 1250, 625, 313, 156 and 78.1 ng/mL and 50 μL of peptide probe (sequence I or II) at 10.0 ng/mL. The plate was incubated for 50 minutes on a MicroMix 5 shaker (Siemens) at room temperature and then 20 μL of 500 μg/mL M280-SA beads were added for an additional 10-minute incubation. The beads were washed once in 150 μL of a PBS-based buffer solution containing 1.8 mM KH2PO4, 10 mM Na2HPO4, 120 mM NaCl, 2.7 mM KCl, 0.033% Tween20 and 0.10% KATHON® CG/ICP II (Cat: 48178-U. Sigma, St. Louis, Mo.) and recovered by attaching a plate magnet to the 96-well plate (LIFESEP™ 96F, Dexter Magnetic Technologies Inc., Elk Grove Village, Ill. 60007). Beads were resuspended in 150 μL of the same PBS-based buffer and read in a M1MR Analyzer (Bioveris).

FXa [2] = assay: Detecting FXa activity by detection of a neoepitope with TAG Plus anti-FLAG M1 detector antibody (ECL immunoassay)
From the text: FXa activity can be measured using peptides comprising a FXa recognition site (-IEGR-) (SEQ ID NO:1) at their N-terminus followed by an amino acid sequence which can be cleaved “off” by FXa. For example, peptide sequence III, below, can be cleaved by FXa to produce peptide sequence IV below. The FXa cleavage of the peptide bond after the arginine residue of the -IEGR- sequence (SEQ ID NO:1) produces a free NH2 group at the N-terminal of the peptide sequence (sequence IV) and the peptide sequence becomes a new epitope (neoepitope) after cleavage.
A FXa activity calibrator curve was set up in a 96-well U bottom microtiter plate containing 100 μL of a 3-fold serial dilution of FXa at 500, 167, 55.6, 18.5, 6.17, 2.06 and 0.686 ng/mL in an assay buffer [50 mM Tris-HCl (pH 7.4), 100 mM NaCl, 0.5% BSA, 10 mg/mL ciprofloxacin, 0.5% Tween-20 and 7.0 mM CaCl2] and 50 μL of a master mix of FXa detection reagent containing 200 μg/mL of M280-SA beads, 600 ng/mL of a peptide sequence V and 1000 ng/mL of TAG Plus anti-FLAG® M1 antibody (Example 2) in the same assay buffer. The peptide sequence V comprises peptide sequence III and a sequence HHHHHH(mPeg2)(KLCBiot)-amide (SEQ ID NO:9). The HHHHHH(mPeg2) (SEQ ID NO:9), a mini-PEG molecule with 9 carbon polyethylene molecule, serves as a spacer, which was conjugated with a lysine at its C-terminus. A biotin molecule was conjugated to the primary amine group on the side chain of the lysine. The peptide can be captured through the high affinity interaction between biotin and streptavidin molecule.
The plate was incubated on a hot plate (Digital Heatblock, Cat. 12621-100, VWR International, LLC., West Chester, Pa. 19380) at 37° C. for 10 or 20 minutes. After the incubation, the beads were washed once in 150 μL of the PBS-based buffer solution (Example 1) and recovered by attaching a plate magnet to the 96-well plate (LIFESEP™ 96F, Dexter Magnetic Technologies Inc., Elk Grove Village, Ill. 60007). Beads were resuspended in 150 μL of the PBS-based buffer and read in a M1MR analyzer. […] Under both incubation conditions, FXa activities were detectable at 1.00 ng/mL or lower concentrations of FXa (signal/background ≧3.0). This lower detection limit is unexpectedly much better than that achieved in Example 1.

FXa [3] = assay: Detecting FXa activity by capturing the TAG-labeled neoepitope with anti-FLAG M1 beads (ECL)
Experimental: A FXa activity calibrator curve was set up in a 96-well U bottom microtiter plate containing 50 μL of a 3-fold serial dilution of FXa at 1000, 333, 111, 37.0, 12.3, 4.12 and 1.37 ng/mL in the assay buffer (Example 4) and 25 μL of NH2-IEGRDYKDDDDKGS-TAG (SEQ ID NO:5) (1.25, 2.5 or 5.0 μg/mL) in a hot plate at 37° C. for 10 minutes. After the incubation, 50 μL of Bi-anti-FLAG®-M1 antibody prebound beads (200 μg/mL concentration at the ratio of 10 μg of antibody per 1.0 mg of beads) were added, followed by an incubation for another 20 minutes at 37° C. After the incubation, the beads were washed once in 150 μL of the PBS-based buffer solution (Example 3) and were resuspended in 150 μL of the PBS-based buffer before beads were read in a M1MR analyzer (BioVeris).

[4] = 10 minute incubation, FXa 0.686 ng/mL
[5] = 10 minute incubation, FXa 2.06 ng/mL
[6] = 10 minute incubation, FXa 6.17 ng/mL
[7] = 10 minute incubation, FXa 18.5 ng/mL
[8] = 10 minute incubation, FXa 55.6 ng/mL
[9] = 10 minute incubation, FXa 167 ng/mL
[10] = 10 minute incubation, FXa 500 ng/mL
[11] = 20 minute incubation, FXa 0.686 ng/mL
[12] = 20 minute incubation, FXa 2.06 ng/mL
[13] = 20 minute incubation, FXa 6.17 ng/mL
[14] = 20 minute incubation, FXa 18.5 ng/mL
[15] = 20 minute incubation, FXa 55.6 ng/mL
[16] = 20 minute incubation, FXa 167 ng/mL
[17] = 20 minute incubation, FXa 500 ng/mL
[18] = substrate 1.25 μg/mL, FXa 1.37 ng/mL
[19] = substrate 1.25 μg/mL, FXa 4.12 ng/mL
[20] = substrate 1.25 μg/mL, FXa 12.3 ng/mL
[21] = substrate 1.25 μg/mL, FXa 37.0 ng/mL
[22] = substrate 1.25 μg/mL, FXa 111 ng/mL
[23] = substrate 1.25 μg/mL, FXa 333 ng/mL
[24] = substrate 1.25 μg/mL, FXa 1000 ng/mL
[25] = substrate 2.5 μg/mL, FXa 1.37 ng/mL
[26] = substrate 2.5 μg/mL, FXa 4.12 ng/mL
[27] = substrate 2.5 μg/mL, FXa 12.3 ng/mL
[28] = substrate 2.5 μg/mL, FXa 37.0 ng/mL
[29] = substrate 2.5 μg/mL, FXa 111 ng/mL
[30] = substrate 2.5 μg/mL, FXa 333 ng/mL
[31] = substrate 2.5 μg/mL, FXa 1000 ng/mL
[32] = substrate 5.0 μg/mL, FXa 1.37 ng/mL
[33] = substrate 5.0 μg/mL, FXa 4.12 ng/mL
[34] = substrate 5.0 μg/mL, FXa 12.3 ng/mL
[35] = substrate 5.0 μg/mL, FXa 37.0 ng/mL
[36] = substrate 5.0 μg/mL, FXa 111 ng/mL
[37] = substrate 5.0 μg/mL, FXa 333 ng/mL
[38] = substrate 5.0 μg/mL, FXa 1000 ng/mL

Chain of FXa (P00742 41-179 limits assumed): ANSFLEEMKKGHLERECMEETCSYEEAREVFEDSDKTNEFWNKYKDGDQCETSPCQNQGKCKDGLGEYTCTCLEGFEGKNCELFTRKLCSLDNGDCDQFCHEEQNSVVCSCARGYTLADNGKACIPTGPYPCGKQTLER
Chain of FXa (P00742 235-488 limits assumed): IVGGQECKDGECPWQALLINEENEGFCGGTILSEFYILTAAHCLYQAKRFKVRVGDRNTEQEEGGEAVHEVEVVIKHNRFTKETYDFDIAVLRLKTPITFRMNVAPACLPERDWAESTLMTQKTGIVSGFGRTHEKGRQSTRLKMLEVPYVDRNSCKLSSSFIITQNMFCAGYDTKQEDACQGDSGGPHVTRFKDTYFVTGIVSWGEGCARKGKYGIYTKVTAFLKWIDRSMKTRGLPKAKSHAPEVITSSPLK

## Biotin-(mPeg2)IEGRGS (KBv TAG Plus) amide [Peptide Probe Sequence II]
FXa [1]; FXa 78.1 ng/mL
  % Signal Decrease: 0%
  Mean Signal: 339795
FXa [1]; FXa 156 ng/mL
  % Signal Decrease: −4%
  Mean Signal: 325928
FXa [1]; FXa 313 ng/mL
  % Signal Decrease: −11%
  Mean Signal: 302632
FXa [1]; FXa 625 ng/mL
  % Signal Decrease: −10%
  Mean Signal: 305778
FXa [1]; FXa 1250 ng/mL
  % Signal Decrease: −24%
  Mean Signal: 256745
FXa [1]; FXa 2500 ng/mL
  % Signal Decrease: −39%
  Mean Signal: 208649
FXa [1]; FXa 5000 ng/mL
  % Signal Decrease: −66%
  Mean Signal: 116839

## Biotin-IEGRGS (KBv TAG Plus) amide [Peptide Probe Sequence I]
FXa [1]; FXa 78.1 ng/mL
  % Signal Decrease: −3%
  Mean Signal: 413958
FXa [1]; FXa 156 ng/mL
  % Signal Decrease: −3%
  Mean Signal: 413232
FXa [1]; FXa 313 ng/mL
  % Signal Decrease: −9%
  Mean Signal: 388137
FXa [1]; FXa 625 ng/mL
  % Signal Decrease: −15%
  Mean Signal: 363185
FXa [1]; FXa 1250 ng/mL
  % Signal Decrease: −31%
  Mean Signal: 296182
FXa [1]; FXa 2500 ng/mL
  % Signal Decrease: −53%
  Mean Signal: 202007
FXa [1]; FXa 5000 ng/mL
  % Signal Decrease: −76%
  Mean Signal: 103604

## Bz-IEGRDYKDDDDKGSHHHHHH(mPeg2)(KLCBiot)-amide ({Bz′}-IEGRDYKDDDDKGSHHHHHH-{mPeg2-KLCBiot-NH2}) [Peptide sequence V]
FXa [2]; [4]
  Mean Signal: 856
  Signal/Background: 2.5
FXa [2]; [5]
  Mean Signal: 1427
  Signal/Background: 4.1
FXa [2]; [6]
  Mean Signal: 3105
  Signal/Background: 9.0
FXa [2]; [7]
  Mean Signal: 8793
  Signal/Background: 25
FXa [2]; [8]
  Mean Signal: 33734
  Signal/Background: 98
FXa [2]; [9]
  Mean Signal: 113240
  Signal/Background: 328
FXa [2]; [10]
  Mean Signal: 298048
  Signal/Background: 864
FXa [2]; [11]
  Mean Signal: 1047
  Signal/Background: 3.3
FXa [2]; [12]
  Mean Signal: 2109
  Signal/Background: 6.6
FXa [2]; [13]
  Mean Signal: 6035
  Signal/Background: 19
FXa [2]; [14]
  Mean Signal: 20653
  Signal/Background: 65
FXa [2]; [15]
  Mean Signal: 73974
  Signal/Background: 232
FXa [2]; [16]
  Mean Signal: 224915
  Signal/Background: 706
FXa [2]; [17]
  Mean Signal: 497703
  Signal/Background: 1562

## NH2-IEGRDYKDDDDKGS-TAG (TAG label; includes cleavage recognition site and binding site for anti-FLAG antibody)
FXa [3]; [18]
  Mean Signal: 1140
  Signal/Background: 1.9
FXa [3]; [19]
  Mean Signal: 2174
  Signal/Background: 3.7
FXa [3]; [20]
  Mean Signal: 4437
  Signal/Background: 7.5
FXa [3]; [21]
  Mean Signal: 10667
  Signal/Background: 18
FXa [3]; [22]
  Mean Signal: 20521
  Signal/Background: 35
FXa [3]; [23]
  Mean Signal: 52797
  Signal/Background: 89
FXa [3]; [24]
  Mean Signal: 69011
  Signal/Background: 116
FXa [3]; [25]
  Mean Signal: 1393
  Signal/Background: 1.6
FXa [3]; [26]
  Mean Signal: 3828
  Signal/Background: 4.5
FXa [3]; [27]
  Mean Signal: 7696
  Signal/Background: 9.0
FXa [3]; [28]
  Mean Signal: 20144
  Signal/Background: 24
FXa [3]; [29]
  Mean Signal: 41788
  Signal/Background: 49
FXa [3]; [30]
  Mean Signal: 62747
  Signal/Background: 73
FXa [3]; [31]
  Mean Signal: 78193
  Signal/Background: 91
FXa [3]; [32]
  Mean Signal: 3725
  Signal/Background: 2.1
FXa [3]; [33]
  Mean Signal: 6363
  Signal/Background: 3.6
FXa [3]; [34]
  Mean Signal: 14866
  Signal/Background: 8.4
FXa [3]; [35]
  Mean Signal: 32274
  Signal/Background: 18
FXa [3]; [36]
  Mean Signal: 62147
  Signal/Background: 35
FXa [3]; [37]
  Mean Signal: 78710
  Signal/Background: 45
FXa [3]; [38]
  Mean Signal: 86900
  Signal/Background: 49
